Legend:
HPDE4 = experiment: Competition for high affinity HPDE4 ([H3]rolipram binding); conditions: 50% inhibition of the binding of [H3]rolipram
Experimental: (§1) In the case of LPDE4, the IC50 is the molar concentration of the test compound producing 50% inhibition of cAMP disappearance, assessed as described in Cortijo J et al Br J Pharmacol 1993, 108: 562-568, while in the case of HPDE4, the IC50 is the molar concentration of the test compound producing 50% inhibition of the binding of [H^3]rolipram, assessed as described in Duplantier A J et al J Med Chem 1996; 39: 120-125.
(§2) The affinity toward LPDE4 and HPDE4 was assessed as previously described respectively in Cortijo J et al Br J Pharmacol 1993, 108: 562-568 and Duplantier A J et al J Med Chem 1996; 39: 120-125.
(§3) The concentration of the test compounds ranged between 10^−12 M and 10^−5 M.
(§4) In the case of LPDE4, the IC50 is the molar concentration of the test compound producing 50% inhibition of cAMP disappearance, while in the case of HPDE4, the IC50 is the molar concentration of the test compound producing 50% inhibition of the binding of [H^3] rolipram.

LPDE4 = experiment: Inhibition of low affinity LPDE4 (cAMP disappearance); type: biochemical; conditions: for IC50: 50% inhibition of cAMP disappearance; for HPDE4/LPDE4: ratio of IC50 values
Experimental: as §1, §2, §3, §4

PDE4 enzyme = experiment: PDE4 inhibitory activity in the cell free assay (cAMP disappearance, U937 cell supernatant); type: biochemical, human; conditions: 1.6 μM cAMP, 30 min at 30° C., mean (95% confidence limits)
Experimental: The U937 human monocytic cell line was used as source of PDE4 enzyme. Cells were cultured, harvested and supernatant fraction prepared essentially as described in Torphy T J et al J. Pharmacol. Exp. Ther. 1992; 263:1195-1205.
PDE4 activity was determined in cells supernatants by assaying cAMP disappearance from the incubation mixtures. 50 μl of cell supernatant were incubated at 30° C. for 30 minutes in a final volume of 200 μl in the presence of 1.6 μM cAMP with or without the test compound (50 μl).
The concentration of the test compounds ranged between 10^−12 M and 10^−6 M. Reactions were stopped by heat inactivation (2.5 minutes at 100° C.) and residual cAMP was measured using an electro-chemiluminescence (ECL)-based immunoassay.
The results, expressed as mean ±95% confidence limits of the molar concentration of the test compound producing 50% inhibition of cAMP disappearance (IC50) are reported in Table 1 of Example 38.
Percentage of inhibition of PDE4 activity was calculated, assuming cAMP disappearance in the absence of inhibitors as 100% and cAMP disappearance in heat inactivated samples as 0%.

[1] = test system: LPS-induced TNF-α release in peripheral blood mononuclear cells (PBMCs); experiment: PDE4 inhibitory activity in the PBMCs assay (LPS-induced TNF-α release); type: cell-based; conditions: PBMC; human PBMCs, LPS 3 ng/ml, 18 h, TNF-α by ELISA; mean (95% confidence limits)
Experimental: The assay, which is based on the known inhibitory activity exerted by PDE4 inhibitors on the lipopolyshaccarides (LPS)-induced tumour necrosis factor-alpha (TNF-α) release in peripheral blood mononuclear cells (PBMCs), was performed according to a method previously described (Hatzelmann A et al J. Pharmacol. Exp. Ther. 2001; 297:267-279; Draheim R et al J. Pharmacol. Exp. Ther. 2004; 308:555-563.
Cryopreserved human PBMCs, (100 μl/well) were incubated in 96-well plates (10^5 cells/well), for 30 min, in the presence or absence (50 microl) of the test compounds whose concentrations ranged from 10^−12 M to 10^−6 M. Subsequently, LPS (3 ng/ml) was added.
After 18 h incubation at 37° C. in a humidified incubator under an atmosphere of 95% air and 5% CO2, culture medium was collected and TNF-α measured by ELISA.
The results, expressed as mean ±95% confidence limits of the molar concentration of the test compound producing 50% inhibition of LPS-induced TNF-α release (IC50) are reported in Table 1.
The effects of the tested compounds were calculated as percentage of inhibition of TNF-α release, assuming LPS-induced TNF-α production in the absence of inhibitor compound as 100% and basal TNF-α production of PBMCs in the absence of LPS as 0%.

[2] = test system: bronchoalveolar lavage neutrophils; experiment: LPS-induced acute pulmonary inflammation in rats (animal model of COPD), intratracheal administration; type: in vivo
Experimental: The anti-inflammatory activity of a representative compound of the invention, e.g. CHF 5480 was evaluated after intratracheal (i.t.) administration according to the method described in Belvisi M G J Pharmacol Exp Ther 2005, 314: 568-574.
CHF 5480 was tested by i.t. instillation 24 h and 1 h before exposure to LPS.

[3] = Pulmonary and plasma levels after intratracheal administration; type: in vivo, rats

Compound	IC50 (PDE4 enzyme) [nM]	IC50 [1] [nM]	also measured
COc1ccc(C(=O)Cc2c(Cl)cncc2Cl)cc1OC1CCCC1 [CHF 5400, 1-(3-cyclopentyloxy-4-methoxy-phenyl)-2-(3,5-dichloro-pyridin-4-yl)-ethanone, reference compound]			IC50 (HPDE4): 0.61 nM; IC50 (LPDE4): 0.94 nM; HPDE4/LPDE4 (LPDE4): 1.5
COc1ccc(C(=O)O/C(=C\c2c(Cl)cncc2Cl)c2ccc(OC)c(OC3CCCC3)c2)cc1OC1CCCC1 [CHF 5408, 3-Cyclopentyloxy-4-methoxy-benzoic acid, (Z)-1-(3-cyclopentyloxy-4-methoxy-phenyl)-2-(3,5-dichloro-pyridin-4-yl)vinyl ester]	1.3	0.9	IC50 (HPDE4): 0.74 nM; IC50 (LPDE4): 42.6 nM; HPDE4/LPDE4 (LPDE4): 57.6
COc1ccc(/C(=C/c2c(Cl)cncc2Cl)OC(=O)c2ccccc2)cc1OC [CHF 5415, Benzoic acid, (Z)-2-(3,5-dichloro-pyridin-4-yl)-1-(3,4-dimethoxy-phenyl)vinyl ester]	5.7	5.7	
COc1ccc(C(=O)O/C(=C\c2c(Cl)cncc2Cl)c2ccc(OC)c(OC)c2)cc1 [CHF 5429, 4-Methoxy-benzoic acid, (Z)-2-(3,5-dichloro-pyridin-4-yl)-1-(3,4-dimethoxy-phenyl)vinyl ester]	1	5.6	
COc1ccc(C(=O)O/C(=C\c2c(Cl)cncc2Cl)c2ccc(OC(F)F)c(OCC3CC3)c2)cc1OC [CHF 5472, 3,4-Dimethoxy-benzoic acid, (Z)-1-(3-cyclopropylmethoxy-4-difluoromethoxy-phenyl)-2-(3,5-dichloro-pyridin-4-yl)vinyl ester]	4	5.4	
COc1ccc(/C(=C/c2c(Cl)cncc2Cl)OC(=O)[C@@H](C)c2ccc(CC(C)C)cc2)cc1OC [CHF 5480, 2-(S)-(4-Isobutyl-phenyl)-propionic acid, (Z)-2-(3,5-dichloro-pyridin-4-yl)-1-(3,4-dimethoxy-phenyl)vinyl ester]	17.9	26	inhibition of bronchoalveolar lavage neutrophils ([2]; i.t. instillation 24 h and 1 h before LPS, doses 0.001 to 10 μmoles/kg): significant and dose-dependent inhibition; reduction of neutrophilia (maximal effect) ([2]; i.t., 1 μmole/kg dose): 60%; levels in plasma ([3]; i.t. administration, plasma): no detectable levels; MRT ([3]; rat, other: intratracheal (i.t.) instillation, lung, read-out: mean residence time in the lungs): 15.3 h
COc1ccc(/C(=C/c2c(Cl)cncc2Cl)OC(=O)c2ccc([N+](=O)[O-])cc2)cc1OC [CHF 5513, 4-Nitro-benzoic acid, (Z)-2-(3,5-dichloro-pyridin-4-yl)-1-(3,4-dimethoxy-phenyl)vinyl ester]	0.5	8.5	
O=C(O/C(=C\c1c(Cl)cncc1Cl)c1ccc(OC(F)F)c(OCC2CC2)c1)c1ccc(OC(F)F)c(OCC2CC2)c1 [CHF 5514, 3-Cyclopropylmethoxy-4-difluoromethoxy-benzoic acid, (Z)-1-(3-cyclopropylmethoxy-4-difluoromethoxy-phenyl)-2-(3,5-dichloro-pyridin-4-yl)vinyl ester]	1.2	12.5	
COc1ccc(/C(=C/c2c(Cl)cncc2Cl)OC(=O)c2ccc(NS(C)(=O)=O)cc2)cc1OC [CHF 5526, 4-Methanesulfonylamino-benzoic acid (Z)-2-(3,5-dichloro-pyridin-4-yl)-1-(3,4-dimethoxy-phenyl)vinyl ester]	0.7	3.77	
COc1ccc(C(=O)O/C(=C\c2c(Cl)cncc2Cl)c2ccc(OC)c(OC3CCCC3)c2)cc1OCc1ccccc1 [CHF 5528, 3-Benzyloxy-4-methoxy-benzoic acid, (Z)-1-(3-cyclopentyloxy-4-methoxy-phenyl)-2-(3,5-dichloro-pyridin-4-yl)vinyl ester]	7.3	21.8	
COc1ccc(/C(=C/c2c(Cl)cncc2Cl)OC(=O)c2ccc(N)cc2)cc1OC [CHF 5530, 4-Amino-benzoic acid, (Z)-2-(3,5-dichloro-pyridin-4-yl)-1-(3,4-dimethoxy-phenyl)vinyl ester]	1.7	5.4	
COc1ccc(C(=O)O/C(=C\c2c(Cl)cncc2Cl)c2ccc(OC)c(OC3CCCC3)c2)cc1OC [CHF 5532, 3,4-Dimethoxy-benzoic acid, (Z)-1-(3-cyclopentyloxy-4-methoxy-phenyl)-2-(3,5-dichloro-pyridin-4-yl)vinyl ester]	12.6	2.2	
COc1ccc(/C(=C/c2c(Cl)cncc2Cl)OC(=O)c2ccc(NS(=O)(=O)c3ccc(F)cc3)cc2)cc1OC [CHF 5533, 4-(4-Fluoro-benzenesulfonylamino)-benzoic acid, (Z)-2-(3,5-dichloro-pyridin-4-yl)-1-(3,4-dimethoxy-phenyl)vinyl ester]	0.37	3.1	
COc1ccc(/C(=C/c2c(Cl)cncc2Cl)OC(=O)c2ccc(NS(=O)(=O)c3ccc(C)cc3)cc2)cc1OC [CHF 5537, 4-(Toluene-4-sulfonylamino)-benzoic acid, (Z)-2-(3,5-dichloro-pyridin-4-yl)-1-(3,4-dimethoxy-phenyl)vinyl ester]	0.35	6.3	
COc1ccc(C(=O)O/C(=C\c2c(Cl)cncc2Cl)c2ccc(OC)c(OCC3CC3)c2)cc1OCC1CC1 [CHF 5546, 3-Cyclopropylmethoxy-4-methoxy-benzoic acid, (Z)-1-(3-cyclopropylmethoxy-4-methoxy-phenyl)-2-(3,5-dichloro-pyridin-4-yl)vinyl ester]		1	
COc1ccc(/C(=C/c2c(Cl)cncc2Cl)OC(=O)c2ccc(OC(F)F)c(OCC3CC3)c2)cc1OC [CHF 5555, 3-Cyclopropylmethoxy-4-difluoromethoxy-benzoic acid, (Z)-2-(3,5-dichloro-pyridin-4-yl)-1-(3,4-dimethoxy-phenyl)vinyl ester]	6.1	2	
COc1ccc(/C(=C/c2c(Cl)cncc2Cl)OC(=O)C2(c3ccc(C)cc3)CC2)cc1OC [CHF 5557, 1-p-Tolyl-cyclopropanecarboxylic acid, (Z)-2-(3,5-dichloro-pyridin-4-yl)-1-(3,4-dimethoxy-phenyl)vinyl ester]	13.8	10.1	

Reference: patent US7671066B2, “Derivatives of 1-phenyl-2-pyridynyl alkylene alcohols as phosphodiesterase inhibitors” (Chiesi Farmaceutici S.p.A., priority 2006, dated 2010)
